{"source": "patent US20090105189A1", "about": "“METHODS AND COMPOSITIONS FOR AMELIORATING OR INHIBITING DECLINE IN MEMORY OR INTELLIGENCE OR IMPROVING SAME” (priority 2006, published 2009)", "type_in_all_cases": "cell-based", "key": {"[1]": {"system": "PC12 cells", "test": "Uptake of uridine into PC12 cells", "conditions": "P2Y receptor antagonists"}, "[2]": {"system": "P2Y receptors", "test": "P2Y receptor antagonism of uridine-enhanced NGF-stimulated neurite outgrowth in PC12 cells", "conditions": "PC12, 4 days, uridine 100 μM", "procedure": "(§1) PC12 cells were sparsely plated on collagen-coated 60 mm culture dishes in MEM containing 1% fetal bovine serum. […] All treatments were performed 24 h after plating. At the end of the treatment period, images were obtained with a phase-contrast Zeiss Axioplan 2 microscope, using OpenLab software. Six digital images were captured for each dish, for a total of 18 to 24 images per treatment group. Approximately 300 cells were quantified for each treatment group for each experiment. Experiments were performed in triplicate. Quantification of neurites, including neurite branching and neurite length, was performed by one more researchers blinded to experimental groups. Neurite length was measured using the public domain NIH software “Image J.” Processes longer than the diameter of the cell body were counted as neurites. Only process-bearing cells were analyzed."}, "[3]": {"system": "PC12 cells", "test": "NGF-induced neurite outgrowth in PC12 cells", "procedure": "PC12 cells were maintained in Minimal Essential Medium (MEM; Invitrogen, Carlsbad, Calif.) supplemented with 10% fetal bovine serum (FBS) at 37° C. Experimental incubations were for 2 or 4 days in medium containing 50 ng/ml mouse 2.5 S (2.5 subunit) NGF and 1% FBS, with or without test compounds. NGF and FBS were obtained from Invitrogen.\nas §1"}, "[4]": {"system": "PC12 cells", "test": "Intracellular UTP and CTP levels in PC12 cells by HPLC", "conditions": "PC12, 2 days with NGF, vs NGF only", "procedure": "Brain tissue or cells was dissolved in methanol/chloroform (1:2 vol/vol), centrifuged, and the aqueous phase was dried under vacuum, resuspended in 100-200 μL water and separated by HPLC on an ion-exchange column (Alltech Hypersil APS-2, 5 μM, 250×4.6 mm). CDP-choline was eluted with a linear gradient of NaH2PO4 buffers A (1.75 mM NaH2PO4, pH 2.9) and B (500 mM, pH 4.5), which allowed resolution of CDP-choline from closely co-eluting substances such as UMP over 40 min. The retention time for CDP-choline was 9.5 min. Individual nucleotide peaks were detected by UV absorption at […], and were identified by comparison with the positions of authentic standards, as well as by the addition of nucleotide standards to selected samples.\nLevels of intracellular UTP and CTP were analyzed by HPLC as described for Example 5, except that 5 mM NaH2PO4, pH 2.65 was used as buffer A."}, "[5]": {"system": "PLC/DAG/IP3 signaling pathway", "test": "PI turnover (inositol phosphate formation) in NGF-differentiated PC12 cells", "procedure": "Analysis of PI turnover was performed as described by ([…] et al, J Neurochem 69: 704-12, 1997). Briefly, cells were labeled metabolically for 36 h with 1.25 microCurie (μCi)/dish of myo-[2-^3H]inositol (17-0 Curie/mmol; Amersham Biosciences) in serum-free MEM, washed twice with Hank's balanced salt solution (HBSS), and treated for 15 min with 10 mM lithium chloride in HBSS. Drugs were added in the presence of 10 mM lithium for 60 min at 37° C. Cells were lysed with ice-cold methanol, and lipids were removed by extraction with chloroform/methanol/water (2:2:1 by volume). Labeled water-soluble inositol phosphates were separated from free [^3H]inositol by ion-exchange chromatography, using AG 1-X8 columns (Bio-Rad), and 1M ammonium formate and 0.1M formic acid as eluent. Radioactivity was quantified by liquid scintillation spectrometry. P2Y2, P2Y4 and P2Y6 receptors activate the phospholipase C/diacylglycerol/inositol triphosphate (PLC/DAG/IP3) signaling pathway. […] These findings indicate that UTP promotes neurite outgrowth via P2Y receptors-mediated stimulation of the IP signaling pathway."}}}
{"smiles": "Nc1c(S(=O)(=O)O)cc(Nc2ccc(Nc3nc(Cl)nc(Nc4cccc(S(=O)(=O)O)c4)n3)c(S(=O)(=O)O)c2)c2c1C(=O)c1ccccc1C2=O", "note": "[RB-2, reactive blue 2]", "values": [{"measurement": "Inhibition of uptake of uridine into PC12 cells", "setting": "[1]", "result": "None of the P2Y receptor antagonists inhibited"}, {"measurement": "Block of uridine enhancement of NGF-stimulated neurite outgrowth", "setting": "[2]; antagonist 10 μM", "result": "significantly (p<0.05 or 0.001) blocked"}]}
{"smiles": "Nc1ccn([C@@H]2O[C@H](CO)[C@@H](O)[C@H]2O)c(=O)n1", "note": "[cytidine]", "values": [{"measurement": "Neurite outgrowth", "setting": "[3]; NGF-exposed PC12 cells, cytidine treatment", "result": "had no effect on neurite outgrowth"}, {"measurement": "Intracellular CTP levels", "setting": "[4]; 50 μM", "result": "did not significantly affect"}, {"measurement": "Intracellular UTP levels", "setting": "[4]; 50 μM", "result": "did not significantly affect"}]}
{"smiles": "O=c1ccn([C@@H]2O[C@H](COP(=O)(O)OP(=O)(O)OP(=O)(O)O)[C@@H](O)[C@H]2O)c(=O)[nH]1", "note": "[UTP, uridine-5′-triphosphate]", "values": [{"measurement": "Formation of IP (PI turnover)", "setting": "[5]; NGF-differentiated PC12, 100 μM, 1 hour", "result": "significantly increased"}, {"measurement": "Neurite outgrowth (neurites per cell)", "setting": "[3]; PC12, NGF, 10 and 50 μM, 4 days, vs NGF only", "result": "significantly (p<0.01) enhanced"}, {"measurement": "Intracellular CTP levels", "setting": "[4]; 100 μM", "result": "did not significantly affect"}, {"measurement": "Intracellular UTP levels", "setting": "[4]; 100 μM", "result": "did not significantly affect"}]}
{"smiles": "Cc1ccc(C(=O)Nc2ccc(S(=O)(=O)O)c3cc(S(=O)(=O)O)cc(S(=O)(=O)O)c23)cc1NC(=O)c1cccc(NC(=O)Nc2cccc(C(=O)Nc3cc(C(=O)Nc4ccc(S(=O)(=O)O)c5cc(S(=O)(=O)O)cc(S(=O)(=O)O)c45)ccc3C)c2)c1", "note": "[suramin]", "values": [{"measurement": "Inhibition of uptake of uridine into PC12 cells", "setting": "[1]", "result": "None of the P2Y receptor antagonists inhibited"}, {"measurement": "Block of uridine enhancement of NGF-stimulated neurite outgrowth", "setting": "[2]; antagonist 30 μM", "result": "significantly (p<0.05 or 0.001) blocked"}]}
{"smiles": "Cc1nc(N=Nc2ccc(S(=O)(=O)O)cc2S(=O)(=O)O)c(COP(=O)(O)O)c(C=O)c1O", "note": "[PPADS, pyridoxal-phosphate-6-azophenyl-2′,4′ disulfonic acid]", "values": [{"measurement": "Inhibition of uptake of uridine into PC12 cells", "setting": "[1]", "result": "None of the P2Y receptor antagonists inhibited"}, {"measurement": "Block of UTP-stimulated IP signaling", "setting": "[5]; NGF-differentiated PC12, antagonist 100 μM", "result": "significantly (p<0.05) blocked"}, {"measurement": "Block of uridine enhancement of NGF-stimulated neurite outgrowth", "setting": "[2]; antagonist 30 μM", "result": "significantly (p<0.05 or 0.001) blocked"}]}
